In patent US12404279B2, “Deubiquitinase inhibitors and methods of use thereof” (Molecure S.A., priority 2021, dated 2025) one finds IC50 and inhibition data, which are given here for 24 compounds.

The assay concerns the target full-length USP7 (Homo sapiens (Human), UniProt Q93009). Description: Enzymatic assay to determine IC50 of USP7 inhibitors (Ubiquitin-Rhodamine 110 cleavage). It is filed as biochemical. To be noted: for pIC50: 0.5 nM USP7, 0.5 μM Ubiquitin-Rhodamine 110, 45 min at 37° C.; for inhibition at 1 µM: read-out: percent value of inhibition of USP7 activity. Summed up:
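Full-length USP7 (0.5 nM) in 50 mM HEPES pH 7.5, 150 mM NaCl, 1 mM DTT, 1 mg/ml BSA, 0.05% Tween20 was preincubated 15 min with DTT at room temperature before compound addition.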

The mark [1] stands for this setting: at 1 μM of the test compound, given where IC50 not determined yet.

pIC50: −log10 of the molar value. Where a name gives a salt, the structure may show the parent alone. Read-outs that look alike come from different tables or passages of the source.

full-length USP7, sequence (Q93009 whole entry): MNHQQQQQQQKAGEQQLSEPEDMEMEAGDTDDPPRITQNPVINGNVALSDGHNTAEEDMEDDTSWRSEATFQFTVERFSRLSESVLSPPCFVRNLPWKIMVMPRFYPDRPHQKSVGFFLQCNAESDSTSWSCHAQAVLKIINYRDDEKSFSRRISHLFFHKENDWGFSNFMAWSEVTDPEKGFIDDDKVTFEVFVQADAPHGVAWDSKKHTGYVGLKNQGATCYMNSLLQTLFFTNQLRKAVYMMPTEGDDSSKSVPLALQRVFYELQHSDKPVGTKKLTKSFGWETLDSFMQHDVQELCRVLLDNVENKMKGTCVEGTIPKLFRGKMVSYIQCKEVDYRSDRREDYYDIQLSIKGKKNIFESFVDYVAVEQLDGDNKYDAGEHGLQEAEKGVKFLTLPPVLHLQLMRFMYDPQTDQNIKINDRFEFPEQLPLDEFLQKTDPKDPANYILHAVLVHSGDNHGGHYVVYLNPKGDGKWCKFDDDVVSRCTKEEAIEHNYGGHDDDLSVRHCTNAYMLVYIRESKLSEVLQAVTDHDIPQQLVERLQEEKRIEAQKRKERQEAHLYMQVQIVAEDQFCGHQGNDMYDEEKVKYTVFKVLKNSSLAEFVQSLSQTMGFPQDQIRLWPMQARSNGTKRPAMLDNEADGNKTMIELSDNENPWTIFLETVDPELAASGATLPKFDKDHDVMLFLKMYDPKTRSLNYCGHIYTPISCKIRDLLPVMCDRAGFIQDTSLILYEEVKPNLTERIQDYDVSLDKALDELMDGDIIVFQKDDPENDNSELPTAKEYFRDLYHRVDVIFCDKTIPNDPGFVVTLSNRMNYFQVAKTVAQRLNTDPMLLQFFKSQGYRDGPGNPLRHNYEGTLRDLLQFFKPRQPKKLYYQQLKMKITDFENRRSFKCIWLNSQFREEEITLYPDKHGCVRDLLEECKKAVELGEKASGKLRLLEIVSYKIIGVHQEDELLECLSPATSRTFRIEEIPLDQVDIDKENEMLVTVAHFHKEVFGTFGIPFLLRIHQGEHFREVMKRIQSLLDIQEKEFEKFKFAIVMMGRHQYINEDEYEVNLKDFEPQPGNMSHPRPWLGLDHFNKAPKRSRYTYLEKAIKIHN

Compound `Cc1nc(C#N)cc(-c2ccnc3cc(CN4C(=O)C5C(C4=O)C5(C)C)sc23)c1C(=O)N1CC[C@@H](N)C1` (stereo partly drawn) [Example 8, 5-((R)-3-aminopyrrolidine-1-carbonyl)-4-(2-((6,6-dimethyl-2,4-dioxo-3-azabicyclo[3.1.0]hexan-3-yl)methyl)thieno[3,2-b]pyridin-7-yl)-6-methylpicolinonitrile 2,2,2-trifluoroacetate] had a pIC50 of 6.00 to 6.30. In the case of `Cc1cc(C(F)(F)F)nc(-c2ccnc3cc(CN4C(=O)C5C(C4=O)C5(C)C)sc23)c1C(=O)N[C@H]1CCNC1` (stereo partly drawn) [Example 75, 2-(2-((6,6-dimethyl-2,4-dioxo-3-azabicyclo[3.1.0]hexan-3-yl)methyl)thieno[3,2-b]pyridin-7-yl)-4-methyl-N—((S)-pyrrolidin-3-yl)-6-(trifluoromethyl)nicotinamide dihydrochloride], the pIC50 is 5.00 to 6.00.

The compound `Cc1nc(C(F)(F)F)cc(-c2ccnc3cc(CN4C(=O)C5C(C4=O)C5(C)C)sc23)c1O[C@H]1CCNC1` (stereo partly drawn) [Example 22] had a pIC50 of 6.00 to 6.30.

As to `Cc1cc(Cl)nc(-c2ccnc3cc(CN4C(=O)C5C(C4=O)C5(C)C)sc23)c1NC1CNC1` (stereo not drawn) [Example 122, 3-((7-(3-(azetidin-3-ylamino)-6-chloro-4-methylpyridin-2-yl)thieno[3,2-b]pyridin-2-yl)methyl)-6,6-dimethyl-3-azabicyclo[3.1.0]hexane-2,4-dione tetrahydrochloride], the pIC50 is more than 6.30. For `CCOC(=O)c1c(C(F)(F)F)c(C)n(C[C@@H]2CNCCO2)c1-c1ccnc2cc(CN3C(=O)C4C(C3=O)C4(C)C)sc12` (stereo partly drawn) [Example 155, ethyl 2-(2-((6,6-dimethyl-2,4-dioxo-3-azabicyclo[3.1.0]hexan-3-yl)methyl)thieno[3,2-b]pyridin-7-yl)-5-methyl-1-(((S)-morpholin-2-yl)methyl)-4-(trifluoromethyl)-1H-pyrrole-3-carboxylate hydrochloride], under setting [1], the inhibition at 1 µM is less than 20%. `Cc1nc(C(F)(F)F)cc(-c2ccnc3cc(CN4C(=O)C5C(C4=O)C5(C)C)sc23)c1OC1CCNC1` (racemic) [Example 21, 6,6-dimethyl-3-((7-(2-methyl-3-(pyrrolidin-3-yloxy)-6-(trifluoromethyl)pyridin-4-yl)thieno[3,2-b]pyridin-2-yl)methyl)-3-azabicyclo[3.1.0]hexane-2,4-dione 2,2,2-trifluoroacetate] showed a pIC50 of more than 6.30. The same measure, in the same setting: to `Cc1cc(Cl)nc(-c2ccnc3cc(CN4C(=O)C5C(C4=O)C5(C)C)sc23)c1NC1CCCNC1` (racemic) [Example 129, 3-((7-(6-chloro-4-methyl-3-(piperidin-3-ylamino)pyridin-2-yl)thieno[3,2-b]pyridin-2-yl)methyl)-6,6-dimethyl-3-azabicyclo[3.1.0]hexane-2,4-dione tetrahydrochloride] belongs more than 6.30. Still for that read-out and setting: to `Cc1cc(C#N)nc(-c2ccnc3cc(CN4C(=O)C5C(C4=O)C5(C)C)sc23)c1C(=O)N1CC[C@H](N(C)C)C1` (stereo partly drawn) [Example 44, 6-(2-((6,6-dimethyl-2,4-dioxo-3-azabicyclo[3.1.0]hexan-3-yl)methyl)thieno[3,2-b]pyridin-7-yl)-5-((S)-3-(dimethylamino)pyrrolidine-1-carbonyl)-4-methylpicolinonitrile hydrochloride] belongs 5.00 to 6.00; to `Cc1cc(C(F)(F)F)nc(-c2ccnc3cc(CN4C(=O)C5C(C4=O)C5(C)C)sc23)c1NC1CCNC1` (stereo not drawn) [Example 18, 6,6-dimethyl-3-((7-(4-methyl-3-(pyrrolidin-3-ylamino)-6-(trifluoromethyl)pyridin-2-yl)thieno[3,2-b]pyridin-2-yl)methyl)-3-azabicyclo[3.1.0]hexane-2,4-dione 2,2,2-trifluoroacetate], more than 6.30; to `Cc1cc(Cl)cc(-c2ccnc3cc(CN4C(=O)C5C(C4=O)C5(C)C)sc23)c1NC(=O)C1CCNCC1` (stereo not drawn) [Example 118, N-(4-chloro-2-(2-((6,6-dimethyl-2,4-dioxo-3-azabicyclo[3.1.0]hexan-3-yl)methyl)thieno[3,2-b]pyridin-7-yl)-6-methylphenyl)piperidine-4-carboxamide 2,2,2-trifluoroacetate], more than 6.30. As for `CC1(C)C2C(=O)N(Cc3cc4nccc(-c5cc(Cl)cnc5O[C@H]5CCNC5)c4s3)C(=O)C21` (stereo partly drawn) [Example 164, 3-((7-(5-chloro-2-(((S)-pyrrolidin-3-yl)oxy)pyridin-3-yl)thieno[3,2-b]pyridin-2-yl)methyl)-6,6-dimethyl-3-azabicyclo[3.1.0]hexane-2,4-dione dihydrochloride], the inhibition at 1 µM under setting [1] is less than 20%. In turn, `Cc1cc(C)c(NC(=O)C2CNC2)c(-c2ccnc3cc(CN4C(=O)C5C(C4=O)C5(C)C)sc23)n1` (stereo not drawn) [Example 133, N-(2-(2-((6,6-dimethyl-2,4-dioxo-3-azabicyclo[3.1.0]hexan-3-yl)methyl)thieno[3,2-b]pyridin-7-yl)-4,6-dimethylpyridin-3-yl)azetidine-3-carboxamide 2,2,2-trifluoroacetate] had a pIC50 of 5.00 to 6.00. Turning to `Cc1nc(C(F)(F)F)cc(-c2ccnc3cc(CN4C(=O)C5C(C4=O)C5(C)C)sc23)c1NC(=O)C1CCNCC1` (stereo not drawn) [Example 87, N-(4-(2-((6,6-dimethyl-2,4-dioxo-3-azabicyclo[3.1.0]hexan-3-yl)methyl)thieno[3,2-b]pyridin-7-yl)-2-methyl-6-(trifluoromethyl)pyridin-3-yl)piperidine-4-carboxamide hydrochloride], the pIC50 was 5.00 to 6.00. Compound `Cc1nc(C(F)(F)F)cc(-c2ccnc3cc(CN4C(=O)C5C(C4=O)C5(C)C)sc23)c1NC(=O)c1cccnc1` (stereo not drawn) [Example 63, N-(4-(2-((6,6-dimethyl-2,4-dioxo-3-azabicyclo[3.1.0]hexan-3-yl)methyl)thieno[3,2-b]pyridin-7-yl)-2-methyl-6-(trifluoromethyl)pyridin-3-yl)nicotinamide 2,2,2-trifluoroacetate] gave a negative logarithm of the IC50 (pIC50) of less than 5.00. As to `Cc1c(N)cc(-c2ccnc3cc(CN4C(=O)C5C(C4=O)C5(C)C)sc23)n1C[C@@H]1CNCCO1` (stereo partly drawn) [Example 176, 3-((7-(4-amino-5-methyl-1-(((S)-morpholin-2-yl)methyl)-1H-pyrrol-2-yl)thieno[3,2-b]pyridin-2-yl))methyl)-6,6-dimethyl-3-azabicyclo[3.1.0]hexane-2,4-dione hydrochloride], the inhibition at 1 µM under setting [1] was less than 20%. For the compound `Cc1cc(Cl)nc(-c2ccnc3cc(CN4C(=O)C5C(C4=O)C5(C)C)sc23)c1NC1CCNCC1` (stereo not drawn) [Example 127, 3-((7-(6-chloro-4-methyl-3-(piperidin-4-ylamino)pyridin-2-yl)thieno[3,2-b]pyridin-2-yl)methyl)-6,6-dimethyl-3-azabicyclo[3.1.0]hexane-2,4-dione tetrahydrochloride], the pIC50 is more than 6.30.

Compound `Cc1cc(C(F)(F)F)nc(-c2ccnc3cc(CN4C(=O)C5C(C4=O)C5(C)C)sc23)c1C(=O)N1CC[C@@H]2CNC[C@@H]21` (stereo partly drawn) [Example 116, 6,6-dimethyl-3-((7-(4-methyl-3-((3aR,6aR)-octahydropyrrolo[3,4-b]pyrrole-1-carbonyl)-6-(trifluoromethyl)pyridin-2-yl)thieno[3,2-b]pyridin-2-yl)methyl)-3-azabicyclo[3.1.0]hexane-2,4-dione dihydrochloride] showed a pIC50 of more than 6.30.

As for `Cc1cc(C)c(NC(=O)C2CCNCC2)c(-c2ccnc3cc(CN4C(=O)C5C(C4=O)C5(C)C)sc23)n1` (stereo not drawn) [Example 134, N-(2-(2-((6,6-dimethyl-2,4-dioxo-3-azabicyclo[3.1.0]hexan-3-yl)methyl)thieno[3,2-b]pyridin-7-yl)-4,6-dimethylpyridin-3-yl)piperidine-4-carboxamide 2,2,2-trifluoroacetate], the inhibition at 1 µM was less than 20%. `Cc1cc(Cl)cc(-c2ccnc3cc(CN4C(=O)C5C(C4=O)C5(C)C)sc23)c1NC(=O)[C@H]1CCNC1` (stereo partly drawn) [Example 34, (3S)—N-(4-chloro-2-(2-((6,6-dimethyl-2,4-dioxo-3-azabicyclo[3.1.0]hexan-3-yl)methyl)thieno[3,2-b]pyridin-7-yl)-6-methylphenyl)pyrrolidine-3-carboxamide 2,2,2-trifluoroacetate] gave a negative logarithm of the IC50 (pIC50) of more than 6.30.

Consider `Cc1nc2c(-c3cc(Cl)cc(C)c3O[C@H]3CCCNC3)ccnc2[nH]1` [Example 67, (S)-7-(5-chloro-3-methyl-2-(piperidin-3-yloxy)phenyl)-2-methyl-3H-imidazo[4,5-b]pyridine hydrochloride], for which the inhibition at 1 µM under setting [1] was less than 20%. For the compound `Cc1cc(C#N)nc(-c2ccnc3cc(CN4C(=O)C5C(C4=O)C5(C)C)sc23)c1C(=O)N1CCOCC1` (stereo not drawn) [Example 58, 6-(2-((6,6-dimethyl-2,4-dioxo-3-azabicyclo[3.1.0]hexan-3-yl)methyl)thieno[3,2-b]pyridin-7-yl)-4-methyl-5-(morpholine-4-carbonyl)picolinonitrile hydrochloride], the pIC50 was 6.00 to 6.30.

For the compound `Cc1nc(C(F)(F)F)cc(-c2ccnc3cc(CN4C(=O)C5C(C4=O)C5(C)C)sc23)c1NC(=O)C1CNC1` (stereo not drawn) [Example 66, N-(4-(2-((6,6-dimethyl-2,4-dioxo-3-azabicyclo[3.1.0]hexan-3-yl)methyl)thieno[3,2-b]pyridin-7-yl)-2-methyl-6-(trifluoromethyl)pyridin-3-yl)azetidine-3-carboxamide 2,2,2-trifluoroacetate], the pIC50 was 5.00 to 6.00. Same read-out and setting: to `Cc1cc(C(F)(F)F)nc(-c2ccnc3cc(CN4C(=O)C5C(C4=O)C5(C)C)sc23)c1C(=O)N1CCNC[C@@H]1C` (stereo partly drawn) [Example 78, 6,6-dimethyl-3-((7-(4-methyl-3-((S)-2-methylpiperazine-1-carbonyl)-6-(trifluoromethyl)pyridin-2-yl)thieno[3,2-b]pyridin-2-yl)methyl)-3-azabicyclo[3.1.0]hexane-2,4-dione dihydrochloride] belongs more than 6.30. On the same count and under the same terms, to `Cc1cc(Cl)nc(-c2ccnc3cc(CN4C(=O)C5C(C4=O)C5(C)C)sc23)c1NC1CCNC1` (stereo not drawn) [Example 126, 3-((7-(6-chloro-4-methyl-3-(pyrrolidin-3-ylamino)pyridin-2-yl)thieno[3,2-b]pyridin-2-yl)methyl)-6,6-dimethyl-3-azabicyclo[3.1.0]hexane-2,4-dione tetrahydrochloride] belongs more than 6.30.
